According to ChEMBL document CHEMBL1201862, “PubChem BioAssay data set” (2004):
Where a name gives a salt, the structure may show the parent alone. Activity calls are given as the source filed them.

What was measured:
[1] = NIH-3T3 fibroblast cytotoxicity, dose response, cytotoxicity control, cell-based, fluorescence, Alamar Blue, secondary assay (AID 2327); assay type: functional;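 note: NIH-3T3 mouse fibroblasts cultured with fluconazole at 8 µg/mL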
[2] = C. albicans growth with fluconazole, confirmation, fluorescence, retest (AID 2467); assay type: functional, cell-based
[3] = microbe, parasite or virus in culture; assay type: functional; details: Mycobacterium tuberculosis
[4] = target: T1, Mannose-6-phosphate isomerase (Homo sapiens, UniProt P34949); assay: human PMI inhibitors, high substrate, primary screen, biochemical, fluorescence intensity, high mannose 6-phosphate (AID 1220)
T1 sequence (P34949 whole entry): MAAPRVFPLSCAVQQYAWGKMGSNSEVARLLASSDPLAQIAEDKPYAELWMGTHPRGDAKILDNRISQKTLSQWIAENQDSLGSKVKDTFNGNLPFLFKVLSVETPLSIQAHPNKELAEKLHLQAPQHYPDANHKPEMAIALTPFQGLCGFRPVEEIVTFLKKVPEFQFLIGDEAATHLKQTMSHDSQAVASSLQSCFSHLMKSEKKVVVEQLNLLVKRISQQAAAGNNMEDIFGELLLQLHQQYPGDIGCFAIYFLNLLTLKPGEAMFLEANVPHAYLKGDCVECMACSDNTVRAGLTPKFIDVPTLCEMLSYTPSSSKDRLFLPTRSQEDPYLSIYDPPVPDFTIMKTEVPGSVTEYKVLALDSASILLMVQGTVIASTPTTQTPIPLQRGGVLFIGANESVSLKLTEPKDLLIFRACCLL

[5] = THP-1 cell cytotoxicity, dose response, cytotoxicity control for non-replicating M. tuberculosis project (AID 489025); assay type: functional
[6] = HepG2 cell cytotoxicity, dose response, cytotoxicity control for non-replicating M. tuberculosis project (AID 489018); assay type: functional; details: Mycobacterium tuberculosis
[7] = Vero E6 cell cytotoxicity, dose response, cytotoxicity control for non-replicating M. tuberculosis project, secondary assay (AID 492998); assay type: functional, VeroE6; details: Vero C1008
cells = assay type: functional
INS1 = assay: beta cell apoptosis inhibitors, cytokine rescue, dose response, luminescence, retest (AID 449756); assay type: functional, cell-based; details: Rattus norvegicus;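 note: cell death triggered by IL-1 beta plus TNF-alpha plus IFN-gamma mixture; protective hits raise ATP signal compared with cytokine alone wells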
Caspase-6 = target: T2, Caspase-6 (Homo sapiens, UniProt P55212); assay: human caspase-6 inhibitors, dose response, biochemical, VEID-R110 fluorescence, cherry-pick (AID 720632)
T2 sequence (P55212 whole entry): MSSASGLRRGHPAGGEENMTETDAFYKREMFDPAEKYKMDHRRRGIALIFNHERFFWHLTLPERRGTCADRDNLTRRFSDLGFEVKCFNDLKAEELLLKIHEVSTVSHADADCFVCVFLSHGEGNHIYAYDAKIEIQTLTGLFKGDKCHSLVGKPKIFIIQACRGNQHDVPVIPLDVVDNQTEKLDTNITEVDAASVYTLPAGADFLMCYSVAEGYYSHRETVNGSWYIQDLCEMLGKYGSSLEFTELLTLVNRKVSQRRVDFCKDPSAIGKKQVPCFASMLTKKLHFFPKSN

[8] = target: T3, Histone-lysine N-methyltransferase NSD2 (Homo sapiens, UniProt O96028); assay type: biochemical
T3 sequence (O96028 whole entry): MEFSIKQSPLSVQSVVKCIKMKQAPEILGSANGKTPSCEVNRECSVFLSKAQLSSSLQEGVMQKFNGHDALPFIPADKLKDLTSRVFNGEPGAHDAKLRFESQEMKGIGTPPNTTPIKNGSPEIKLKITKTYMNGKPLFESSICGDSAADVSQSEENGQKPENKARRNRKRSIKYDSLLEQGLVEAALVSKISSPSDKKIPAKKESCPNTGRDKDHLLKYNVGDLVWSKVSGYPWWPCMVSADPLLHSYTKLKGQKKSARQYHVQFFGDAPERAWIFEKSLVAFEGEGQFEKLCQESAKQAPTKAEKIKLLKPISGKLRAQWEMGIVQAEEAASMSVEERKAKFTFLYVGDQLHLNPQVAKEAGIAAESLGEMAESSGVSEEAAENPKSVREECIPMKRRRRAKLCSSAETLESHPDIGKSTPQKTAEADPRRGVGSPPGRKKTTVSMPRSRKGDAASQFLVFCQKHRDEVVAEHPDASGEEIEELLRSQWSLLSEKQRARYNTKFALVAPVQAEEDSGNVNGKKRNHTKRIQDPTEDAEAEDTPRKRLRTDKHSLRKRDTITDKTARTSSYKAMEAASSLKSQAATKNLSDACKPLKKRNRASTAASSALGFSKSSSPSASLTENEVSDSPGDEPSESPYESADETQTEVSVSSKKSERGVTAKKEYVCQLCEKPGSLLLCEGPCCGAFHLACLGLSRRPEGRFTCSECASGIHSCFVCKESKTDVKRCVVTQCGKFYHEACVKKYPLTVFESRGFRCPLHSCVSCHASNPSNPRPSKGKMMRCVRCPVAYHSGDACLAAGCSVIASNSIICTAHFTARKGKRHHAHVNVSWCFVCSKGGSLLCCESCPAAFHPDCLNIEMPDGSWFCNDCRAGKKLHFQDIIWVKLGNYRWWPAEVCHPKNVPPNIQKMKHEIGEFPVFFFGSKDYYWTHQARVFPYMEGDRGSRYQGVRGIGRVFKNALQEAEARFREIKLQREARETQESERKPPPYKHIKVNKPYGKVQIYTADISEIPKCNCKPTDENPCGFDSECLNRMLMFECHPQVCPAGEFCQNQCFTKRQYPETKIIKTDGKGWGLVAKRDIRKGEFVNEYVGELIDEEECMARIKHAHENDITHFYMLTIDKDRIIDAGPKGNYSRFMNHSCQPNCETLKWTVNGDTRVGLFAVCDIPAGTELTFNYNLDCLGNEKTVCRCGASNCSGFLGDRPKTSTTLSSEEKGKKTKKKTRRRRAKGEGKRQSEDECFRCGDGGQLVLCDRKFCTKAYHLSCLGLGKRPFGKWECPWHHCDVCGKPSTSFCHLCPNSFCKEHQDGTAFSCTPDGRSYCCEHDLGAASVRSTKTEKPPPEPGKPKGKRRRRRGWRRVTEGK

[9] = target: T4, Tyrosyl-DNA phosphodiesterase 2 (Homo sapiens, UniProt O95551); assay: human TDP2 enzyme inhibitors, dose response, biochemical, epi absorbance, IC50 (AID 743297)
T4 sequence (O95551 whole entry): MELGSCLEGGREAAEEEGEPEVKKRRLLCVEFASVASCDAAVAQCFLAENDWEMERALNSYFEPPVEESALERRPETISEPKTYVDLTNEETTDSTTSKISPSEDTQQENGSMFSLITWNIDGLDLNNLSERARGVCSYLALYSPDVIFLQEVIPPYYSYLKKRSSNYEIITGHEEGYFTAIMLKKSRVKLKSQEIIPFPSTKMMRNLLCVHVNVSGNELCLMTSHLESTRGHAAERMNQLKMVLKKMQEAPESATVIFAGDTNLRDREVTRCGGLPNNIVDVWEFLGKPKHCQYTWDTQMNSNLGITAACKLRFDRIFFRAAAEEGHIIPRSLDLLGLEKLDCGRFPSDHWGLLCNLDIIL

[10] = target: Mitogen-activated protein kinase 10 (Homo sapiens, UniProt P53779); assay: Dose response biochemical screening assay for inhibitors of c-Jun N-Terminal Kinase 3 (JNK3). [Related pubchem assays: 746 ]
Chain of Mitogen-activated protein kinase 10 (P53779 whole entry): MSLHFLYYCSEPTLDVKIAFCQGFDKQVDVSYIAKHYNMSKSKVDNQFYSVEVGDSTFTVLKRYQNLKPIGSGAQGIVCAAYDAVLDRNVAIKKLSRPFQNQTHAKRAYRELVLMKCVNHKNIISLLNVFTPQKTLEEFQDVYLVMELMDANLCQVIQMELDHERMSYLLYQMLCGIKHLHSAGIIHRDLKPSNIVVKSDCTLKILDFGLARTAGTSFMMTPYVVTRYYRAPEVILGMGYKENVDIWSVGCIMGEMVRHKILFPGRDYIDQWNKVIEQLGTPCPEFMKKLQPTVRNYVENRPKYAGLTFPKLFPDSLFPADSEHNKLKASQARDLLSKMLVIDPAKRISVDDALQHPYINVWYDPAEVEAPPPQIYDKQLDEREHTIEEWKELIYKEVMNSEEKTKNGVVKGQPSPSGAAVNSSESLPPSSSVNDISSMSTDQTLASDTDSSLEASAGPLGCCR

[11] = Concentration-dependent survival of SW480 colon cancer line, luminescence detection with CellTiter-Glo, half-maximal inhibitory concentration (AID 1117338); assay type: functional
[12] = RKO cell viability reduction, dose response, CellTiter-Glo luminescence (AID 1117322); assay type: functional
[13] = SNU-C1 cell viability reduction, dose response, CellTiter-Glo luminescence (AID 1117323); assay type: functional, cell-based
[14] = cytotoxicity toward Colo320 cells – cell-based, CellTiter-Glo luminescence, IC50, dose response (AID 1117334); assay type: functional; details: COLO 320
[15] = cytotoxicity toward HT-29 cells – cell-based, CellTiter-Glo luminescence, IC50, dose response (AID 1117330); assay type: functional
[16] = CellTiter-Glo luminescent dose response of DLD-1 viability loss (AID 1117352); assay type: functional
[17] = HCT116 cell viability decrease, GSK3B pretreatment – CellTiter-Glo, IC50, dose response (AID 1117339); assay type: functional; details: HCT-116
[18] = A549 cell cytotoxicity, dose response, cytotoxicity control, plate reader, cherry-pick, antagonist series (AID 743412); assay type: functional, cell-based
[19] = HepG2 cell cytotoxicity, dose response, cytotoxicity control, plate reader, cherry-pick, antagonist series (AID 743416); assay type: functional, cell-based
[20] = LGR2 antagonists, dose response, cell-based, HEK293, CRE-luciferase reporter, cherry pick, set 2 (AID 743343); assay type: functional;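 note: transfected cells were stimulated with diluted bursicon conditioned medium after compound addition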
[21] = MC4R antagonists, dose response, counter-screen for LGR2 antagonist project, cell-based, plate reader, cherry pick (AID 743444); assay type: functional;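 note: transfected HEK 293 cells stimulated with alpha-MSH peptide; potency of inhibitors of the alpha-MSH evoked signal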
[22] = P. falciparum Dd2 growth inhibitors, dose response, SYBR Green, dry powder samples, set 9 (AID 1159568); assay type: functional, cell-based
Paired box protein Pax-8 = Paired box protein Pax-8 (Homo sapiens, UniProt Q06710); assay: inhibitors of PAX8-driven TPO luciferase reporter, dose response, RMG-I cells, cherry-pick (AID 687027); assay type: functional, cell-based;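 note: luciferase reporter driven by Pax8 target thyroperoxidase promoter measured by SteadyGlo luminescence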
Chain of Paired box protein Pax-8 (Q06710 whole entry): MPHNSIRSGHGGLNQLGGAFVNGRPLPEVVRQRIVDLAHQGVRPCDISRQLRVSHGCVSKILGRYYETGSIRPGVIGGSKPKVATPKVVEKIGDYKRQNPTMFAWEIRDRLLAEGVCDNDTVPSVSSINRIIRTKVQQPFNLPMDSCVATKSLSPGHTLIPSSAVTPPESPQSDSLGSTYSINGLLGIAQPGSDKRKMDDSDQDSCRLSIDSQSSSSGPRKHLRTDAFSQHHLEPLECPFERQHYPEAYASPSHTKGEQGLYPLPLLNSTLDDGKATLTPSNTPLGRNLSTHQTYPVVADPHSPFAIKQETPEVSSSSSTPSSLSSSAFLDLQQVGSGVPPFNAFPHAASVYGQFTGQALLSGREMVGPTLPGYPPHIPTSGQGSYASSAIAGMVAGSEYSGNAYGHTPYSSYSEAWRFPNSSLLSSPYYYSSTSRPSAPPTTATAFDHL

[23] = NIH:OVCAR-3 ovarian cancer cell cytotoxicity, dose response, PAX8 inhibitor project, plate reader, dry powder samples (AID 743044); assay type: functional, cell-based
[24] = cytotoxicity in OVCAR8 ovarian cancer cells, dose response, PAX8 project, cell-based, plate reader, dry powder samples (AID 743197); assay type: functional; details: OVCAR-8
[25] = P. falciparum 3D7-ScDHODH growth inhibitors, dose response, SYBR Green, dry powder samples (AID 1159570); assay type: functional, cell-based;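 note: parasite growth measured after 72 hours of compound exposure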
[26] = HepG2 cell cytotoxicity, dose response, cytotoxicity control, plate reader, dry powder samples (AID 1159569); assay type: functional, cell-based;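 note: inhibitor potency with signal falling toward the positive control level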
[27] = P. falciparum Dd2 growth inhibitors, dose response, SYBR Green, cherry-picked samples (AID 1159567); assay type: functional, cell-based
[28] = P. falciparum Dd2 growth inhibitors, dose response, SYBR Green, dry powder samples (AID 1159566); assay type: functional, cell-based;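 note: potency for growth inhibition with lower SYBR green DNA signal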
[29] = HepG2 cell cytotoxicity, dose response, cytotoxicity control, cherry-picked samples (AID 1159577); assay type: functional, cell-based
[30] = P. falciparum ATP4 D1247Y mutant growth inhibitors, dose response, NITD609-resistant line, SYBR Green, dry powder (AID 1159571); assay type: functional, cell-based;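 note: parasites synchronized at ring stage by sorbitol before testing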
[31] = cytotoxicity toward HCT116 cells – cell-based, CellTiter-Glo luminescence, IC50, dose response (AID 1117332); assay type: functional; details: HCT-116
[32] = half-maximal inhibitory concentration for glucagon-like peptide-1 release, STC-1 cell line, dose-response (AID 1117345); assay type: functional, cell-based
[33] = Glucagon-like peptide 1 release potency, NCI-H716 cell line, dose-response, half-maximal inhibitory concentration (AID 1117344); assay type: functional, cell-based

With CCOC(=O)N1CCN(Cc2cc(Cl)c3cccnc3c2O)CC1 the EC50 [1] was > 150 µM (inactive), the EC50 [2] was 1.28 µM (active) and the CC50 [3] was 4.95 µM (active). The IC50 [4] was 11.8 µM (active), the CC50 [5] was 4.35 µM (active) and the CC50 [6] was 11 µM (active). The CC50 [7] was 2.64 µM (active), the IC50 (cells) was 10.9 µM (active) and the AC50 (INS1) was 3.13 µM (active).

In the case of Cc1cnc(C2OCCO2)c2cccc(N)c12, the AC50 (Caspase-6) is reported as 26.2 µM (active), the AC50 [8] is reported as 18.5 µM (active) and the IC50 [9] is reported as > 129 µM (inactive).

In the case of Cc1ccccc1Nc1nn2c(=O)c3ccccc3nc2s1, the IC50 [10] is reported as 39.3 µM (not active).

In the case of O=C(NC1CCN(CCc2c[nH]c3ccccc23)CC1)c1ccccc1 [INDORAMIN HYDROCHLORIDE], the IC50 [11] is reported as > 20 µM (inactive), the IC50 [12] is reported as > 20 µM (inactive) and the IC50 [13] is reported as > 20 µM (inactive). The IC50 [14] was > 20 µM (inactive), the IC50 [15] was > 20 µM (inactive) and the IC50 [16] was > 20 µM (inactive). For the same compound, the IC50 [17] was > 20 µM (inactive).

With C[C@@H]1CN([C@@H](C)CO)C(=O)c2cccc(NC(=O)c3ccc(-c4nccs4)cc3)c2O[C@@H]1CN(C)C(=O)Nc1ccc(C(F)(F)F)cc1 the AC50 [18] was 25.5 µM (active), the AC50 [19] was 33.2 µM (active) and the AC50 [20] was 43.7 µM (active). The AC50 [21] was 54.1 µM (active) and the AC50 [22] was 2.16 µM (active).

For N#CCCC12CCCCC1=Nc1ccccc12 (stereo not drawn), the IC50 [10] was > 93.1 µM (not active).

For C[C@@H]1CN([C@@H](C)CO)C(=O)Cc2cc(NC(=O)Cc3cn(C)c4ccccc34)ccc2O[C@H]1CN(C)Cc1ccc(Oc2ccccc2)cc1, the AC50 (Paired box protein Pax-8) was 7.45 µM (active), the AC50 [23] was 22.6 µM (active) and the AC50 [24] was 43.1 µM (active). For the same compound, the AC50 [25] was 1.6 µM (active), the AC50 [26] was 22.2 µM (active) and the AC50 [27] was 1.34 µM (active). For the same compound, the AC50 [28] was 1.05 µM (active), the AC50 [29] was > 39 µM (inactive) and the AC50 [30] was 1.65 µM (active).

In the case of OC1(c2ccc(Cl)c(C(F)(F)F)c2)CCN(CCCC(c2ccc(F)cc2)c2ccc(F)cc2)CC1 [PENFLURIDOL], the IC50 [12] is reported as 0.971 µM (active), the IC50 [31] is reported as 1.85 µM (active) and the IC50 [13] is reported as 0.168 µM (active). For the same compound, the IC50 [32] was > 40 µM (inactive), the IC50 [14] was 0.962 µM (active) and the IC50 [15] was 0.946 µM (active). The IC50 [16] was 1.14 µM (active) and the IC50 [33] was 8.45 µM (inactive).
